Data on 20 molecules can be found in ChEMBL document CHEMBL5505970 (J Med Chem, 2024).

SMILES strings stand for the structures. Calls of active or inactive are those of the source. No cut-off for these calls is given here. Some results are limits rather than exact numbers.

The nature of data set [1]: Inhibition of human full length recombinant ATR M211T mutant using GST-c-Myc-p53 as substrate measured after 30 mins in presence of Mg/ATP mix by ELISA.
Data set [2] deals with T1, Serine/threonine-protein kinase ATR (Homo sapiens, UniProt Q13535). The data set can be described thus: Inhibition of ATR in human HeLa S3 cells assessed as decrease in CHK1 phosphorylation at Ser345 residue pretreated for 20 mins followed by gemcitabine stimulation for 3.5 to 4 hrs by AlphaScreen SurFire assay. The format is cell-based.
Another data set concerns the target ATR/ATRIP (Homo sapiens, UniProt Q13535). The data set can be described thus: Inhibition of human ATR/ATRIP using GST-tagged p53 as substrate in presence of 3 uM ATP by AlphaScreen assay. The class given is protein-complex assay. For orientation: Alpha assays give light when donor and acceptor beads are brought close together.
Data set [3] can be described thus: Clearance in human liver microsomes at 1 uM in presence of NADPH by ESI/LC-MS/MS analysis. The format is ADME, Microsome. The conditions noted are these: read-out: CLH. In general terms: Liver microsomes are a subcellular fraction often used to study metabolism.
Data set [4] can be described thus: Oral bioavailability in Sprague-Dawley rat at 2.5 to 5 mg/kg formulated as a solution in 5% NMP:95% (10% VitE TPGS in water) measured for 24 hrs by reverse phase liquid chromatography coupled to mass spectrometry. The format is ADME, organism-based. The note with it: in vivo, dose 2.5-5 mg/kg.
A short description of data set [5]: Clearance in Sprague-Dawley rat at 1 mg/kg, iv formulated as a solution in 10% PG:18% PEG400 in water or 5% NMP:95% (10% VitE TPGS in water) measured for 24 hrs by reverse phase liquid chromatography coupled to mass spectrometry. The format is ADME, organism-based. The conditions noted are these: in vivo.
The species entered for data set [6] is Homo sapiens. Description: Selectivity ratio of IC50 for inhibition of mTOR in human HeLa S3 cells to IC50 for inhibition of ATR in human HeLa S3 cells. The format is cell-based. The conditions noted are these: time 1.0 hrs.
The nature of data set [7]: Apparent permeability of the compound in human Caco-2 cells at 10 uM measured for 90 mins by LC-MS/MS analysis. The class given is ADME, cell-based.
Data set [8] can be described thus: Efflux ratio of apparent permeability in human Caco-2 cells at 10 uM measured for 90 mins by LC-MS/MS analysis. The format is ADME, cell-based.
Data set [9] can be described thus: Clearance in human hepatocytes at 1 uM measured per million cells by ESI/LC-MS/MS analysis. The format is ADME, cell-based, Hepatocyte. The conditions noted are these: read-out: CLH.
Data set [10] deals with Serine-protein kinase ATM (Homo sapiens, UniProt Q13315). Description: Inhibition of human full length recombinant ATM using GST-c-Myc-p53 as substrate measured after 30 mins in presence of Mg/ATP mix by ELISA.
Data set [11] concerns the target Serine/threonine-protein kinase mTOR (Homo sapiens, UniProt P42345). The data set can be described thus: Inhibition of human full length recombinant mTOR measured after 40 mins in presence of [gamma-33P]ATP by radiometric scintillation counting analysis.
For data set [12], the target named is DNA-dependent protein kinase catalytic subunit (Homo sapiens, UniProt P78527). The data set can be described thus: Inhibition of human full length recombinant DNA-PK using GST-c-Myc-p53 as substrate measured after 30 mins in presence of Mg/ATP mix by ELISA.
A further data set concerns LoVo. The data set can be described thus: Cytotoxicity against human LoVo cells assessed as reduction in cell viability incubated for 5 days by CellTiter-Glo assay. The class given is functional, cell-based. The conditions noted are these: 120 h.
The nature of data set [13]: Toxicity in NOD-SCID mouse xenografted with human Granta-519 cells assessed as early stage erythroblasts at 30 mg/kg, po bid for 3 days and measured at 4 days after treatment discontinuation by flow cytometry. The conditions noted are these: in vivo, 72 h, time 3 day. The format is organism-based.
Data set [14] is described as follows: Toxicity in NOD-SCID mouse xenografted with human Granta-519 cells assessed as reduction in red blood cells at 50 mg/kg, po bid for 3 days and 4 days off treatment and measured on day 14. The format is organism-based. The conditions noted are these: in vivo, 72 h, time 3 day. (In general: Xenograft models place foreign cells or tissue in a host animal.)
For another data set, the system named is Granta-519. Description: Antitumor activity against human Granta-519 cells xenografted in NOD-SCID mouse assessed as decrease in tumor volume at 50 mg/kg, po bid for 3 days and measured at 4 days after drug treatment cessation. The class given is functional, organism-based. The conditions noted are these: time 3.0 day.
Data set [15] in a line: Toxicity in NOD-SCID mouse xenografted with human Granta-519 cells assessed as late stage erythroblasts at 30 mg/kg, po bid for 3 days and measured at 4 days after treatment discontinuation by flow cytometry. The class given is organism-based. The conditions noted are these: in vivo, 72 h, time 3 day.
Data set [16] deals with Glycogen synthase kinase-3 alpha (Homo sapiens) (UniProt P49840). Description: Inhibition of GSK3A in human Jurkat cell lysates at 0.03 to 0.3 uM in presence of biotinylated ADP by KiNativ profiling based mass spectrometry. The format is subcellular. The conditions noted are these: dose 0.03-0.3 µM.
The target in data set [17] is T1, Serine/threonine-protein kinase ATR. Description: Inhibition of ATR in gemcitabine-stimulated human LoVo cells assessed as decrease in CHK1 phosphorylation at Ser345 residue. The class given is cell-based.
The target is the same in data set [18]. Description: Inhibition of ATR (unknown origin) by Morrison equation based analysis.
The species named for data set [19] is Homo sapiens. Description: Selectivity ratio of IC50 for inhibition of mTOR in human LoVo cells using pP70S6K (Thr389) as substrate to IC50 for inhibition of ATR in gemcitabine-stimulated human LoVo cells using CHK1 (Ser345) as substrate. The format is cell-based.
The target in data set [20] is Glycogen synthase kinase-3 beta (Homo sapiens) (UniProt P49841). Description: Inhibition of GSK3B in human Jurkat cell lysates at 0.03 to 0.3 uM in presence of biotinylated ADP by KiNativ profiling based mass spectrometry. The note with it: dose 0.03-0.3 µM. The format is subcellular.
Data set [21] has as its target Dual specificity tyrosine-phosphorylation-regulated kinase 1A (Homo sapiens) (UniProt Q13627). Description: Inhibition of DYRK1A in human Jurkat cell lysates at 0.03 to 0.3 uM in presence of biotinylated ADP by KiNativ profiling based mass spectrometry. The class given is subcellular. The conditions noted are these: dose 0.03-0.3 µM.

As usually defined, the IC50 is the point on the concentration scale where inhibition reaches its midpoint. Broadly, the bioavailability is the share of a dose that reaches the circulation, judged against a reference dose that is usually intravenous. One may read the clearance as the rate of elimination divided by the concentration. A high value points to a high capacity for elimination. Broadly, the Papp is the rate of passage across a membrane or cell layer, normalised by area and donor concentration. What is called efflux ratio is a quotient of directional permeabilities that is used to spot active efflux. The Ki is the dissociation constant of the complex between target and ligand, obtained from inhibition or displacement. Read a low Ki as higher affinity.

Sequence of ATR/ATRIP (Q13535 whole entry): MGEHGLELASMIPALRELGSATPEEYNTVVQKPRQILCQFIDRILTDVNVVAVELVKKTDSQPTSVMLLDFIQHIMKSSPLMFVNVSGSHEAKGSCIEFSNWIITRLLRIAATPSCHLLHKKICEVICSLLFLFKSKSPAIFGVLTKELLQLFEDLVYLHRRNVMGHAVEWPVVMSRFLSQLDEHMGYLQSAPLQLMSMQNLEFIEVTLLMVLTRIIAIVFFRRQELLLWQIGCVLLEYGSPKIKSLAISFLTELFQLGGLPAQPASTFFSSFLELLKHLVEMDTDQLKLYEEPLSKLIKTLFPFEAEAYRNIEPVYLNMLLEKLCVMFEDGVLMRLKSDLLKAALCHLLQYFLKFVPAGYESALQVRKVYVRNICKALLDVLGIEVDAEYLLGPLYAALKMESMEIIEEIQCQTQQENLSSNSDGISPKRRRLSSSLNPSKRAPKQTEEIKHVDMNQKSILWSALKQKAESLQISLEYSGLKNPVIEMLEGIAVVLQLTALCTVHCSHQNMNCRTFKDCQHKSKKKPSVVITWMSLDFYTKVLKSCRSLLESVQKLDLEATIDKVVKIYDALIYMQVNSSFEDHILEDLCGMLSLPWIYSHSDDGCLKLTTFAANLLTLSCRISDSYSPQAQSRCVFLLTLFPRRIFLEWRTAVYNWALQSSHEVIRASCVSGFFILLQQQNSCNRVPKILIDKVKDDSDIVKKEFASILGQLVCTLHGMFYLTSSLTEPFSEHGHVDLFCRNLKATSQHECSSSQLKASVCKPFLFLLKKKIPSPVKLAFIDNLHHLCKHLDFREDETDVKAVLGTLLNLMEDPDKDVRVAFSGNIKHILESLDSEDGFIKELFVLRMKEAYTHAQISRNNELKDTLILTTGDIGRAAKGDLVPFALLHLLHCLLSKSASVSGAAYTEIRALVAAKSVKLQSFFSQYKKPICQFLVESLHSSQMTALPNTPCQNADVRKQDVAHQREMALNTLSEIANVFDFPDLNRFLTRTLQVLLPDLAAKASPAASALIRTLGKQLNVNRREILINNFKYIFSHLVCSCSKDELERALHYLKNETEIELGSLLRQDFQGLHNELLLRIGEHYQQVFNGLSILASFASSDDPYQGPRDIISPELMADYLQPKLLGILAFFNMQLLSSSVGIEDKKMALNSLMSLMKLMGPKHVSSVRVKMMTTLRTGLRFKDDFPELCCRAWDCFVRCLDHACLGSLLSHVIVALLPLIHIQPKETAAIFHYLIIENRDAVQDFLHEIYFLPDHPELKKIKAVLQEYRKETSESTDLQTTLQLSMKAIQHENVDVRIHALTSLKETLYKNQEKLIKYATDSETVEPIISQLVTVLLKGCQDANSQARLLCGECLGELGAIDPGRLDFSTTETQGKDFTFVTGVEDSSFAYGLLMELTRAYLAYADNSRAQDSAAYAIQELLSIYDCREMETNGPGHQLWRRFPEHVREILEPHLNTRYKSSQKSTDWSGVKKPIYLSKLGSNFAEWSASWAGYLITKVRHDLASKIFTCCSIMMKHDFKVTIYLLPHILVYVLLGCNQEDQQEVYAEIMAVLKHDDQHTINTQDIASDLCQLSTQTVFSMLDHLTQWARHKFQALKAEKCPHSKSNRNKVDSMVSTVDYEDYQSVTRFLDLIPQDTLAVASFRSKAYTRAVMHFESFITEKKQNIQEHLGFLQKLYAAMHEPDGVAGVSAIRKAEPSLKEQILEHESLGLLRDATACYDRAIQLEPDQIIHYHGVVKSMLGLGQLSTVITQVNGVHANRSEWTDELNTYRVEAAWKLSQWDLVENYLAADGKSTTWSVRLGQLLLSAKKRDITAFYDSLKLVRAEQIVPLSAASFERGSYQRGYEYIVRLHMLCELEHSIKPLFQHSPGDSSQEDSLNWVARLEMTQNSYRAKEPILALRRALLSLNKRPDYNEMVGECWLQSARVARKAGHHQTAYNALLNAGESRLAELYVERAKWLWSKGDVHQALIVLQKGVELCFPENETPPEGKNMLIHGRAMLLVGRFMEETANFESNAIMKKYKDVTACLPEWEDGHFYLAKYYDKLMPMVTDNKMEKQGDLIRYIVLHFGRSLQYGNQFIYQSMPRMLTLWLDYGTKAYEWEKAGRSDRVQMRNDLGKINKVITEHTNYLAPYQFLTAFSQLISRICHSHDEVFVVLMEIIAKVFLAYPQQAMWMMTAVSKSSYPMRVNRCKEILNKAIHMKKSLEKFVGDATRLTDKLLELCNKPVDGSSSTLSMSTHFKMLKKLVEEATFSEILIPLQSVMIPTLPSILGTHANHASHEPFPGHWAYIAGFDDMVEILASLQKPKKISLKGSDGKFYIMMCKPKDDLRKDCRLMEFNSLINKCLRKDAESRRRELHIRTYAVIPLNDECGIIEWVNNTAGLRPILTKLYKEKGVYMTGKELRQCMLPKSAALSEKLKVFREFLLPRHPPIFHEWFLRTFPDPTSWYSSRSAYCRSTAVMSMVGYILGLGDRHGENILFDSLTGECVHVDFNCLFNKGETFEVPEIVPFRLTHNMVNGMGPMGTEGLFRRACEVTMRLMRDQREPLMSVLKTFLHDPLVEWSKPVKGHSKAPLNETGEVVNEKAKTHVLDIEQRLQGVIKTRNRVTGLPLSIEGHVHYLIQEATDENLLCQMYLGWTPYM
Sequence of ATR/ATRIP (Q8WXE1 whole entry, further chain): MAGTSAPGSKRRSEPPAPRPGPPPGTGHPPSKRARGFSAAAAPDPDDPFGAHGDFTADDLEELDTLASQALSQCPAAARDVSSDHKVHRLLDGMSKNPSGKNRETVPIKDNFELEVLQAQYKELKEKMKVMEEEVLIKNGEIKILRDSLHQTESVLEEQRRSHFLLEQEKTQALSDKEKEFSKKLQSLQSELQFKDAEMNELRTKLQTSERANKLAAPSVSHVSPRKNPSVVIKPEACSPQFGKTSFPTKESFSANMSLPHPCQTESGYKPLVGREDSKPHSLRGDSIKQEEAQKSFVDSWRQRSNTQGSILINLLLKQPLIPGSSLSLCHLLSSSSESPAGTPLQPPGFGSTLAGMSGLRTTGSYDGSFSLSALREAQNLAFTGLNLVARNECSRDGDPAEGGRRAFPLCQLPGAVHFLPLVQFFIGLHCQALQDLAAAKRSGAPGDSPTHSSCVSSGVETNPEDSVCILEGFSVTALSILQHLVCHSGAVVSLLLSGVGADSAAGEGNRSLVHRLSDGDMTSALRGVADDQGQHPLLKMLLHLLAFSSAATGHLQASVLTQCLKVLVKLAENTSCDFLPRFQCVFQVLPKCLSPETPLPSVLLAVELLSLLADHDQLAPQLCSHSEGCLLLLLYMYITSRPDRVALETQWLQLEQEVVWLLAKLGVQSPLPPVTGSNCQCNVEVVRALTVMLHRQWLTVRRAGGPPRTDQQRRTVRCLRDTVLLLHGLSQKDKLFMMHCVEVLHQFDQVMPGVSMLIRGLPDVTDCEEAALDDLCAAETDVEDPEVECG
T1 sequence (Q13535 whole entry): as the sequence (Q13535 whole entry) above
Sequence of Glycogen synthase kinase-3 alpha (Homo sapiens) (P49840 2-483 limits assumed): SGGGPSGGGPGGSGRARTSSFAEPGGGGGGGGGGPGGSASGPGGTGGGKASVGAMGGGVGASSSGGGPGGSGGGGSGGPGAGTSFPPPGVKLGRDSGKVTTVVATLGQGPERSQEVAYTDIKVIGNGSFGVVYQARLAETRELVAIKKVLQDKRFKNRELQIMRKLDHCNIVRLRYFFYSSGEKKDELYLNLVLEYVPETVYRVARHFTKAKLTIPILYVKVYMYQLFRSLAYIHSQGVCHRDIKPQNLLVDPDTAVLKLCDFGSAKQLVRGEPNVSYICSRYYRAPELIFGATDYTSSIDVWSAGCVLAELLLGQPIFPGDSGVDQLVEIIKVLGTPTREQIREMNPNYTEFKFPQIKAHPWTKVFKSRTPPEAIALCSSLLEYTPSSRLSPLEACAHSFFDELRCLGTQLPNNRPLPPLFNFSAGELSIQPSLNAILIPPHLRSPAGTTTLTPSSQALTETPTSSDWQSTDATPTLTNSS
Sequence of Glycogen synthase kinase-3 beta (Homo sapiens) (P49841 whole entry, looked up): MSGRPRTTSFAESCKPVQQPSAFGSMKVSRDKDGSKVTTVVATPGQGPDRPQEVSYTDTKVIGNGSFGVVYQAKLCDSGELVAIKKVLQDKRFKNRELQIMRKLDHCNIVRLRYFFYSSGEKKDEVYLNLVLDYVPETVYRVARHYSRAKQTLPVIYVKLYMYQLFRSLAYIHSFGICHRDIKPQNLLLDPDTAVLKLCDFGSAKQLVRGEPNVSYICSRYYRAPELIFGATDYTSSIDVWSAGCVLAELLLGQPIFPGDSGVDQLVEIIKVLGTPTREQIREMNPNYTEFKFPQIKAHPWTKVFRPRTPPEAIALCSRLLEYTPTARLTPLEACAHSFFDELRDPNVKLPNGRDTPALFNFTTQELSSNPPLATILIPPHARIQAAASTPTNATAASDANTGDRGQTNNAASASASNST

In the case of `C[C@@H]1COCCN1c1cc(C2(S(C)(=O)=O)CC2)nc(-c2cccc3[nH]ccc23)n1`, the IC50 in data set [1] came to 10 nM.

For `Cc1c[nH]nc1Nc1nc(N2CCOC[C@H]2C)cc(C2(S(C)(=O)=O)CC2)n1`, the IC50 in [2] was above 10000 nM; at ATR/ATRIP it was above 1000 nM.

`C[C@@H]1COCCN1c1cc(C2(S(C)(=O)=O)CC2)nc(Cc2cc[nH]n2)n1`: the IC50 in data set [2] was above 10000 nM; on ATR/ATRIP it was above 700 nM.

For the molecule `C[C@@H]1COCCN1c1cc(C2(O)CCC(F)(F)CC2)c2cnn(-c3cc[nH]n3)c2n1`, in [3], the microsomal CLint at 1 µM is below 11.6 µL/min/mg.

`C[C@@H]1COCCN1c1cc(I)c2cnn(-c3ccn[nH]3)c2n1`: the microsomal CLint at 1 µM in data set [3] stood at 23 µL/min/mg. In addition, the IC50 in data set [2] came out at 7 nM.

As to `C[C@@H]1COCCN1c1cc(C2(S(C)(=O)=O)CC2)nc(S(=O)(=O)c2cc[nH]n2)n1`, the IC50 in data set [2] is above 10000 nM; at ATR/ATRIP it was 160 nM.

As to `C[C@@H]1COCCN1c1cc(C2(S(C)(=O)=O)CC2)nc(N(C)c2cc[nH]n2)n1`, the IC50 on ATR/ATRIP was above 1000 nM.

Consider `C[C@@H]1COCCN1c1cc(-c2ccccc2C(N)=O)c2cnn(-c3ccn[nH]3)c2n1`, for which, in [3], the microsomal CLint at 1 µM is below 11.6 µL/min/mg. Moreover, the bioavailability in [4] was found to be 2%. Besides, in [5], the clearance was found to be 45 mL/min/kg.

Take `C[C@@H]1COCCN1c1ccc2cnn(-c3cc[nH]n3)c2n1`: the Ratio IC50 in the data set filed under Homo sapiens [6] came to 4. For the same molecule, the IC50 in data set [2] was found to be 60 nM.

For the molecule `C[C@@H]1COCCN1c1cc(C(C)(C)C(N)=O)c2cnn(-c3cc[nH]n3)c2n1`, in [2], the IC50 was 9 nM.

For the molecule `Cc1cc2c(C3(S(C)(=O)=O)CC3)cc(N3CCOC[C@H]3C)nc2n1-c1cc[nH]n1`, on ATR/ATRIP, the IC50 was above 1000 nM.

On to `C[C@@H]1COCCN1c1cc(C(C)(C)C#N)c2cnn(-c3cc[nH]n3)c2n1`, for which the Ratio IC50 in the data set listed under Homo sapiens [6] turned out to be 6.6. In [3], the microsomal CLint at 1 µM was below 11.6 µL/min/mg. Besides, the Papp at […], 10 µM in data set [7] was 17 ×10⁻⁶ cm/s. The bioavailability in data set [4] stood at 56%. Further, the IC50 in [2] is 0.8 nM. In data set [8], the efflux ratio at […], 10 µM was 0.9. Also, the clearance in data set [5] worked out at 15 mL/min/kg.

As for `C[C@@H]1COCCN1c1cc(C(C)(C)O)c2cnn(-c3cc[nH]n3)c2n1`, the IC50 in data set [2] was 21 nM.

For the molecule `C[C@@H]1COCCN1c1cc(C2(S(C)(=O)=O)CC2)nc(Nc2cn[nH]c2)n1`, the half-inhibitory concentration (IC50) in data set [2] is above 10000 nM.

Consider `C[C@@H]1COCCN1c1cc(C2(S(C)(=O)=O)CC2)c2ccn(-c3cc[nH]n3)c2n1`, for which, in [3], the microsomal CLint at 1 µM was below 11.8 µL/min/mg. Moreover, the hepatocyte CLint at 1 µM in data set [9] was below 2.9 µL/min/1e6 cells.

Consider `C[C@@H]1COCCN1c1cc(I)c2cnn(-c3cc[nH]n3)c2n1`, for which the Ratio IC50 in the data set filed under Homo sapiens [6] was found to be 1.6.

Turning to `CNCc1ccc(-c2cc(-c3nc(-c4ccc(S(=O)(=O)C(C)C)cc4)cnc3N)on2)cc1` [BERZOSERTIB], the IC50 in data set [10] is 85 nM; in data set [11] it was 4.8 µM; in data set [12] it was 3.6 µM; in data set [1], 5 nM.

`C[C@@H]1COCCN1c1cc(C2([S@](C)(=N)=O)CC2)nc(-c2cc[nH]c3nccc2-3)n1` [CERALASERTIB]: the concentration for half-maximal inhibition (IC50) with LoVo stood at 377 nM; in data set [1], 134 nM.

On to `C[C@@H]1COCCN1c1cc(-c2ccnn2C)c2ccnc(-c3ccn[nH]3)c2n1` [ELIMUSERTIB], for which the Activity entry in [13] was “Non-Toxic”; in data set [14], “Toxic”; in [15], “Non-Toxic”. For the same molecule, the outcome in the data set on Granta-519 was Active. Besides, the IC50 in the data set with LoVo came to 27 nM.

As for `Nc1nn2cc(F)cnc2c1C(=O)Nc1cncc(F)c1N1CCC(C(=O)N2CCN(C3COC3)CC2)CC1` [M4344], the Ratio IC50 is 27 in the data set filed under Homo sapiens [6] and 63 in the data set filed under Homo sapiens [19]. The inhibition result in data set [16], in data set [20] and in data set [21] was “Active” throughout. The 50% inhibitory concentration (IC50) in [17] was 1.1 nM; in data set [2] it was 5 nM; at ATR/ATRIP, 160 nM. Moreover, in [18], the Ki was 2.9 nM.
